Measured values from paper PMC6396024, “Artemin and an Artemin-Derived Peptide, Artefin, Induce Neuronal Survival, and Differentiation Through Ret and NCAM” (Frontiers in Molecular Neuroscience, 2019).
Values belong to the molecule of their own block, whether it stands above or below them. Ends that are not written are not given here.

How the values were obtained:
[1] = system: cerebellar granule neurons (CGNs); assay: Survival assay of CGNs induced to undergo apoptosis by potassium withdrawal; format: cell-based, Wistar rat; details: 50 ng/ml, 48 h, 5 mM KCl; p < 0.0001; positive control
Protocol: (§1) Cerebellar granule neurons (CGNs) were prepared from 7-day-old Wistar rat pups (Charles River Laboratories, Sulzfeld, Germany) as previously described ([Schousboe et al., 1989]). Briefly, pups were decapitated, and the cerebellum was removed and cleared from blood vessels and meninges in ice-cold modified Krebs-Ringer buffer. The cerebellum was dissociated by chopping and trypsinization. Cells were washed in Krebs-Ringer buffer containing DNAse I (Sigma, St. Louis, MO, United States) and soybean trypsin inhibitor (Sigma) to stop trypsinization, and the remaining tissue pieces were pelleted by centrifugation. Cells were then washed in Krebs-Ringer buffer containing Ca^2+ and Mg^2+ and re-suspended in appropriate Neurobasal^TM medium (Invitrogen, Taastrup, Denmark) with supplements depending on the experiment.
Cerebellar granule neurons were re-suspended in Neurobasal^TM-A medium supplemented with 2% (v/v) B27 (Invitrogen, Taastrup, Denmark), 0.5% (v/v) glutamax, 100 U/ml penicillin, 100 μg/ml streptomycin, and 40 mM KCl, and seeded at a density of 1 × 10^5 cells/well in 8-well LabTek Permanox chamber slides (Nunc, Roskilde, Denmark) coated with poly-L-lysine (10 μg/ml). To avoid proliferation of non-neuronal cells, cytosine-β-D-arabinofuranoside (Sigma) was added to cells 24 h after plating. CGNs were allowed to differentiate for 7 days in vitro (DIV) in the presence of 40 mM KCl before being induced to undergo apoptosis by changing the medium to one containing only 5 mM KCl (apoptotic medium) ([D’Mello et al., 1993]). At 7 DIV, cells were washed and stimulated with serially diluted ARTN or artefin diluted in the apoptotic medium. Three different controls were included; (1) cells grown in medium containing 40 mM KCl served as a positive control; (2) cells grown in medium containing 5 mM KCl served as a negative control; (3) cells grown in medium containing 5 mM KCl supplemented with 50 ng/ml insulin growth factor-1 (IGF-1) (Life Technology), a known anti-apoptotic factor for CGNs in this setup ([Galli et al., 1995]). After 48 h following the induction of apoptosis, cells were fixated in 4% formaldehyde for 30 min, and nuclear morphology was visualized with Hoechst 33258 staining (Invitrogen, Taastrup, Denmark) (Figure 2A). Images of cells were obtained using a Nikon Diaphot 200 fluorescent microscope equipped with a Nikon Plan 40× objective (Nikon, Tokyo, Japan) and coupled to a black-white video camera. Images of at least 1000 cells/well in different fields of view were analyzed, and the percentage of viable neurons was estimated as the ratio of live cells (non-pyknotic cells with dispersed chromatin) to the total number of neurons.
FIGURE 2 Effect of ARTN and artefin on survival of cerebellar granular neurons (CGNs) induced to undergo apoptosis. CGNs were differentiated for 7 days in the presence of 40 mM KCl before apoptosis was induced by potassium withdrawal. (A) Nuclear morphology of CGNs after Hoechst 33258 staining. […] Scale bar: 100 μm. Cells were grown for 48 h in media, containing 40 mM KCl, apoptotic medium (5 mM KCl) or apoptotic medium supplemented with 50 ng/ml IGF-1 (positive control) (B), serially diluted ARTN (C), or artefin (D). Each experiment was performed in the presence of the three controls (40 mM KCl, 5 mM KCl, and 5 mM KCl plus IGF-1), and the survival effect of the growth factor and the peptide was compared to its own apoptotic control (5 mM KCl). Results from the five experiments are expressed as percentage of 40 mM KCl control set at 100% and presented as mean ± SEM. The anti-apoptotic effect of ARTN and artefin was tested using Student’s paired t-test, where ^∗p < 0.05; ^∗∗p < 0.01; ^∗∗∗p < 0.001; ^∗∗∗∗p < 0.0001.

[2] = system: cerebellar granule neurons (CGNs); assay: Neurite outgrowth assay in CGNs; format: cell-based, Wistar rat; details: 24 h; ARTN 0.013–2.1 nM; artefin 0.16–37.9 μM; one-way ANOVA
Protocol: as §1
(§2) Cerebellar granule neurons CGNs were re-suspended in Neurobasal^TM medium supplemented with 2% (v/v) B27, 0.5% (v/v) glutamax, 100 U/ml penicillin, 100 μg/ml streptomycin, 0.4% (w/v) BSA, and 20 mM HEPES and were seeded in 8-well LabTek Permanox chamber slides (Nunc) at a density of 1 × 10^4 cells/cm^2. Various concentrations of ARTN, artefin, scrambled artefin, or reversed artefin were added to neurons immediately after seeding. For the RET inhibition assay, the inhibitory goat anti-mouse RET antibody (4.1 μg/ml; R&D systems, Abingdon, United Kingdom) or control goat IgG (4.1 μg/ml; Santa Cruz Biotechnology, Dallas, TX, United States) were added to neurons 1 h before stimulation with ARTN (0.042 nM) […]. For the competition assay between growth factor and mimetic peptide, a combination of ARTN (2.1 nM) and artefin (4.2 μM) was added to the cells immediately after seeding. To inhibit Fibroblast growth factor receptor (FGFR) pharmacologically, inhibitor of FGFR, SU5402 (Sigma), was added to the growth medium in serial dilutions of 20, 40, and 80 μM immediately after plating of CGNs, followed by addition of either P2-d (8 μg/ml), ARTN (0.21 nM), or artefin (1.4 μM) 1 h after the plating.
(§3) To estimate neurite outgrowth, neurons were fixated 24 h after stimulation and stained with rabbit anti-growth-associated-protein-43 (GAP-43) antibody (Chemicon International, Inc., Temecula, CA, United States) or anti-GFP antibody (for transfection experiment) overnight at 4°C followed by incubation with secondary Alexa-conjugated goat anti-rabbit antibodies (Invitrogen, Taastrup, Denmark). In case of experiments with plasmid transfection, the transfection efficiency was ca. 20% of total cells and the neurite outgrowth was evaluated only in GFP-positive, i.e., transfected, cells. For representative pictures, cells were additionally co-stained with Hoechst 33258.
(§4) Computer-assisted fluorescent microscopy was performed using a Nikon Diaphot 300 inverted microscope (Nikon) equipped with a Nikon Plan 20× objective and coupled to a video camera (Grundig Electronics, Germany). For each condition in each experiment, including the experiment with transfections, images of approximately 200 cells were recorded in systematic series of fields of view, and neurite outgrowth was quantified using a stereological approach as previously described ([Rønn et al., 2000]).
FIGURE 3 Neurite outgrowth induced by ARTN (A), artefin-dendrimer (B), and artefin-monomer (C) in CGNs. Cells were stimulated with ARTN (0.013, 0.042, 0.13, 0.42, and 2.1 nM) or artefin (0.16, 0.47, 1.4, 4.2, 12.6, and 37.9 μM) for 24 h. For the unstimulated control, the absolute length of neurites was 11.47 ± 1.5 μm. Results from four independent experiments are expressed as percentage of untreated control set to 100% and presented as mean ± SEM. The mean neurite outgrowth lengths were compared using one-way ANOVA for repeated measurements. The effect of individual concentrations of ARTN and artefin was compared to control using one-way ANOVA with Dunnett’s post-hoc test, ^∗p < 0.05; ^∗∗p < 0.01. […]

[3] = system: RET; cerebellar granule neurons (CGNs); assay: Neurite outgrowth in CGNs transfected with dominant negative RET (dnRET); format: cell-based, Wistar rat; details: 24 h, P2-d 8 μg/ml, ARTN 0.21 nM, artefin 1.4 μM
Protocol: as §1
(§5) To evaluate the involvement of NCAM and RET in neurite outgrowth induced by either ARTN or artefin, CGNs (3 × 10^6 per transfection) were transfected with 3 μg DNA using a Nucleofector^TM 2b device and a Rat Neuron Nucleofector Kit (Amaxa, Inc., Gaithersburg, MD, United States). A kinase-deleted dominant negative RET insert was obtained by direct PCR using a commercially available clone (IRAKp961P02132Q; RZPD, Berlin, Germany) encoding full-length mouse RET coding sequence 586–3807 nt. as template. The upper primer […] contained a NheI restriction site and Kozak sequence, and the lower primer […] encoded Streptag II and NotI restriction sites. The dominant negative RET insert and the pcDNA5/FRT expression vector containing the Flp-In system were cut with NheI and NotI restriction enzymes, purified, ligated using the Rapid DNA Ligation Kit (Roche, Basel, Switzerland), and transfected into One Shot TOP10 E. coli (Invitrogen, Taastrup, Denmark). E. coli colonies containing the dominant negative RET insert were identified by PCR, and one insert-positive colony was used for plasmid purification. The identity of the purified plasmid was verified by restriction cutting and sequencing of the insert. For NCAM knock down, we used a pENTR vector containing the shRNA expression cassette for NCAM knock down ([Hansen et al., 2007]). An empty vector was used as a control. To identify transfected neurons, all transfections were performed as co-transfections with 0.5 μg pEGFP-N1, an expression vector encoding the enhanced variant of green fluorescent protein (GFP; Clontech, Palo Alto, CA, United States). Transfected CGNs were seeded in Neurobasal^TM-A medium supplemented with 2% (v/v) B27, 5% (v/v) FCS, and 2 mM Glutamax at a density of 1 × 10^5 cells/cm^2.
as §3, §4
(§6) FIGURE 7 Neuritogenic effect of ARTN and artefin in (A) dominant negative RET or (B) knock down NCAM-expressing CGNs. […]

[4] = system: NCAM; cerebellar granule neurons (CGNs); assay: Neurite outgrowth in CGNs with NCAM knock down (NCAM shRNA); format: cell-based, Wistar rat; details: 24 h, P2-d 8 μg/ml, ARTN 0.21 nM, artefin 1.4 μM
Protocol: as §1, §5, §3, §4, §6

[5] = system: FGFR; cerebellar granule neurons (CGNs); assay: Neurite outgrowth in CGNs with FGFR-inhibitor SU5402; format: cell-based, Wistar rat; details: p < 0.01
Protocol: as §1
as §2, with “To inhibit Fibroblast growth factor receptor (FGFR) pharmacologically, inhibitor of FGFR, SU5402 (Sigma), was added to the growth medium in serial dilutions of 20, 40, and 80 μM immediately after plating of CGNs, followed by addition of either P2-d (8 μg/ml), ARTN (0.21 nM), or artefin (1.4 μM) 1 h after the plating.” left out
as §3, with “For representative pictures, cells were additionally co-stained with Hoechst 33258.” left out
as §4, with “2000]). […]” for “2000]).”

[6] = biological target: T1, recombinant human GFRα3/Fc (human, UniProt O60609 32-374); assay: SPR; Biacore 2000, 25°C, HBS-EP (10 mM HEPES pH 7.4, 150 mM NaCl, 3 mM EDTA, 0.005% P20); ARTN (~2300 RU) or artefin (~1600 RU) amine-coupled on a CM4 chip; serially diluted GFRα3/Fc or NCAM Ig1–3 injected at 20 μl/min; 1:1 interaction model or steady-state affinity analysis; details: both partners purified
T1 construct: GDNF family receptor alpha-3 (GFRα3), human; Commercial Fc chimera; also called GFL receptor α3; source: bought: R&D Systems
T1 sequence (looked up): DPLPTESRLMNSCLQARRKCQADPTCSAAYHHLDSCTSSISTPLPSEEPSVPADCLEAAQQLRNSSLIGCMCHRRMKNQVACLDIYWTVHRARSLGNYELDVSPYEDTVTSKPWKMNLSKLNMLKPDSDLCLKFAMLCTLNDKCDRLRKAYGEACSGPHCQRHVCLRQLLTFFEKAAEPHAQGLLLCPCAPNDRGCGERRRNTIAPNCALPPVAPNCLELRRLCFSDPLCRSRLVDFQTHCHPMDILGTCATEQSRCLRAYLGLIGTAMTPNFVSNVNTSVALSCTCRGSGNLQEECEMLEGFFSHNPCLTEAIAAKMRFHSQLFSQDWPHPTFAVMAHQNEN

[7] = biological target: T2, recombinant rat NCAM Ig1–3 (rat, UniProt P13596 20-308); assay: as above; details: both partners purified
T2 construct: neural cell adhesion molecule (NCAM), rat, Ig1–3 domains; also called NCAM Ig1–3 domain; source: recombinant, produced as described previously (Soroka et al., 2003)
T2 sequence (P13596 20-308): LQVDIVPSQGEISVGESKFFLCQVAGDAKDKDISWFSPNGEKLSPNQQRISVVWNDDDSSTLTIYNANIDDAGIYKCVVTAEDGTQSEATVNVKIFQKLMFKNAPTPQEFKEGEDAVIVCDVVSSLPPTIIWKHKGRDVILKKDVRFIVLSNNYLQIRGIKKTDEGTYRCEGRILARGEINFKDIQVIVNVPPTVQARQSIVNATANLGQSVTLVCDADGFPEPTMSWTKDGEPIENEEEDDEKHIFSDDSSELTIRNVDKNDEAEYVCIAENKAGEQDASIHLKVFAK

Molecule: IGF-1: insulin growth factor-1 (Life Technology), a known anti-apoptotic factor for CGNs [reference compound]
neuronal survival (rescue from apoptosis by potassium withdrawal) [1]: significantly increased the number of CGNs rescued from the apoptosis

Molecule: RSPHDLSLASLLGAG [artefin in monomer form]
overall neuritogenic effect [2]: did not demonstrate any significant neurite outgrowth

Molecule: GRILARGEINFK [P2-d, reference compound]
neurite outgrowth in dnRET-transfected neurons ([3]; dnRET): significantly increased the level of neurite outgrowth in mock-transfected neurons as well as in neurons transfected with the vector encoding dnRET (p < 0.05 | neurite outgrowth in mock-transfected neurons ([3]; empty vector, versus control): significantly increased the level of neurite outgrowth in mock-transfected neurons | neurite outgrowth in NCAM knock down neurons ([4]; NCAM shRNA): eliminated in neurons transfected with NCAM shRNA (p < 0.01 | neurite outgrowth in mock-transfected neurons ([4]; empty vector, versus control): increased neurite outgrowth in mock-transfected neurons (p < 0.05) | neurite outgrowth with 80 μM FGFR inhibitor ([5]; P2-d 8 μg/ml with 80 μM inhibitor): significantly attenuated | neurite outgrowth in the absence of SU5402 ([5]; P2-d 8 μg/ml): promoted neurite outgrowth in the absence of SU5402 (p < 0.01)

Kd [6]: 0.0029 µM | Kd [7]: 2.8 µM
B1: artefin, ARTN-derived peptide synthesized as a tetramer (dendrimer) on a lysine backbone (peptide)
peptide: RSPHDLSLASLLGAG
modifications: also: tetramer: four monomers coupled to a lysine backbone
notes: amino acids 166-180 of human ARTN (UniProt D3DPX9), heel region; also called artefin-dendrimer; artefin-d; source: synthetic peptide (Schafer-N, Copenhagen; solid-phase Fmoc chemistry)
